Assay results as given in US12343326B2, “Psychoactive medicines and their use for treating psychiatric and neurological conditions and disorders” (Transcend Therapeutics, Inc., priority 2021, dated 2025).
Read-outs that look alike come from different tables or passages of the source.

Legend:
Assay in all cases: β-arrestin based GPCR screen (PathHunter / GPCRmax), agonist mode
Format in all cases: cell-based
Design in all cases: host or cells: PathHunter cell lines
168 GPCRs [1] = biological target: 168 GPCRs (Homo sapiens, UniProt P35462)
168 GPCRs (Homo sapiens, UniProt P35462), sequence (P35462 whole entry): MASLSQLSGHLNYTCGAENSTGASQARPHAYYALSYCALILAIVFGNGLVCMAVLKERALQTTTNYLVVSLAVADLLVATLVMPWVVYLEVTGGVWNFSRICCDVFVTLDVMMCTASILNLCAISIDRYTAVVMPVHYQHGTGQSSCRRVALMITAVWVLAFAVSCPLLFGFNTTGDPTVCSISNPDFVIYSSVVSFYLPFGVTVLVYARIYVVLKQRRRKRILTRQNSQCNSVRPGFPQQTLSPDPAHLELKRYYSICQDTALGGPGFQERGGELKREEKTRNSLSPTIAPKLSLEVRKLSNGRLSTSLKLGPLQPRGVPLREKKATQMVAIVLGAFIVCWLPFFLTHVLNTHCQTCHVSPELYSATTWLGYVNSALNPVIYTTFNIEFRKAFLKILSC
Method: (§1) For agonist determination, cells were incubated with sample to induce response. […] Vehicle concentration was 1%.

168 GPCRs [2] = biological target: 168 GPCRs (Homo sapiens, UniProt P30874)
168 GPCRs (Homo sapiens, UniProt P30874), sequence (P30874 whole entry): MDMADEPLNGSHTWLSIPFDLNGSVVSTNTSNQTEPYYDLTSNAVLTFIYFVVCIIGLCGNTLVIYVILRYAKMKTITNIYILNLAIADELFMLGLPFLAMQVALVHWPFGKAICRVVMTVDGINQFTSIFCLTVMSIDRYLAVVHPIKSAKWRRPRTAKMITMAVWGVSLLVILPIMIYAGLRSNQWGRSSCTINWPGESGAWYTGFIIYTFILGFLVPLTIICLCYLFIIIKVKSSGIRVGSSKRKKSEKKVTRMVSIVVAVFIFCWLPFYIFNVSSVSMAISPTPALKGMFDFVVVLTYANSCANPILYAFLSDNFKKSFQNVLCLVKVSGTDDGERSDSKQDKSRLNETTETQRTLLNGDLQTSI
Method: as §1

168 GPCRs [3] = biological target: 168 GPCRs (Homo sapiens, UniProt P25101); settings: EDNRA
Method: as §1

168 GPCRs [4] = biological target: 168 GPCRs (Homo sapiens, UniProt Q9UKP6)
168 GPCRs (Homo sapiens, UniProt Q9UKP6), sequence (Q9UKP6 whole entry): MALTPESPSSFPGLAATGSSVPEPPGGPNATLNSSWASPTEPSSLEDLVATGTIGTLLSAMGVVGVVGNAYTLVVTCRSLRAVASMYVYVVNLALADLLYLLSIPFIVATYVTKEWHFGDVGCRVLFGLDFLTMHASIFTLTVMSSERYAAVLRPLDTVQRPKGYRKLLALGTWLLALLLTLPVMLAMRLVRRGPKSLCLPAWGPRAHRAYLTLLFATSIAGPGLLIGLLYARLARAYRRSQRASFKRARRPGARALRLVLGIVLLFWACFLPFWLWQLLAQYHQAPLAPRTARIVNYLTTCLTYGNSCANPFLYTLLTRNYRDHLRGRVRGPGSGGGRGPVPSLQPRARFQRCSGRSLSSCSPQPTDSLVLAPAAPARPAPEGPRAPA
Method: as §1

168 GPCRs [5] = biological target: 168 GPCRs (Homo sapiens, UniProt O95136)
Method: as §1

168 GPCRs [6] = biological target: 168 GPCRs (Homo sapiens, UniProt P25116); settings: F2R
Method: as §1

168 GPCRs [7] = biological target: 168 GPCRs (Homo sapiens, UniProt P50391)
168 GPCRs (Homo sapiens, UniProt P50391), sequence (P50391 whole entry): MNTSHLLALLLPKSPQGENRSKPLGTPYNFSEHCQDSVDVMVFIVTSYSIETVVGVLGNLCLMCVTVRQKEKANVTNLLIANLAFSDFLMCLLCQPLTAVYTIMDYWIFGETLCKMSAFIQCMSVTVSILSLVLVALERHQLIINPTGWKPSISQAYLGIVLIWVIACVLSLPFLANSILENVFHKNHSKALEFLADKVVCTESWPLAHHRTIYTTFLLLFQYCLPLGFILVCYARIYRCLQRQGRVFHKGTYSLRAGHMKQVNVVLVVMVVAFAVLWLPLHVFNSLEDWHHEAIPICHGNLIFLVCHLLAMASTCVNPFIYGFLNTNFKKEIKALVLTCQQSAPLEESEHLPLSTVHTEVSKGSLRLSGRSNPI
Method: as §1

168 GPCRs [8] = biological target: 168 GPCRs (Homo sapiens, UniProt P32745)
168 GPCRs (Homo sapiens, UniProt P32745), sequence (P32745 whole entry): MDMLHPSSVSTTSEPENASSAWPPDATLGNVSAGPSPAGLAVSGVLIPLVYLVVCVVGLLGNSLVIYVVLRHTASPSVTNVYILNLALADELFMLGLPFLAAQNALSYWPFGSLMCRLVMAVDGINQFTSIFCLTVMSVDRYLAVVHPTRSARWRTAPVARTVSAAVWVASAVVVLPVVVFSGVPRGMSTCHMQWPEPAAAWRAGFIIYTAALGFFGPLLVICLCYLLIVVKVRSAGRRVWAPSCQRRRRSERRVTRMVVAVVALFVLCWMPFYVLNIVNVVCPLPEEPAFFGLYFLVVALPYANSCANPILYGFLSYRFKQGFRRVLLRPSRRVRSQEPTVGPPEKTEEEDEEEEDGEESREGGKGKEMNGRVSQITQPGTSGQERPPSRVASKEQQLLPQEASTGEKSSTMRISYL
Method: as §1

168 GPCRs [9] = biological target: 168 GPCRs (Homo sapiens, UniProt Q16602); settings: Agonist
168 GPCRs (Homo sapiens, UniProt Q16602), sequence (Q16602 23-461): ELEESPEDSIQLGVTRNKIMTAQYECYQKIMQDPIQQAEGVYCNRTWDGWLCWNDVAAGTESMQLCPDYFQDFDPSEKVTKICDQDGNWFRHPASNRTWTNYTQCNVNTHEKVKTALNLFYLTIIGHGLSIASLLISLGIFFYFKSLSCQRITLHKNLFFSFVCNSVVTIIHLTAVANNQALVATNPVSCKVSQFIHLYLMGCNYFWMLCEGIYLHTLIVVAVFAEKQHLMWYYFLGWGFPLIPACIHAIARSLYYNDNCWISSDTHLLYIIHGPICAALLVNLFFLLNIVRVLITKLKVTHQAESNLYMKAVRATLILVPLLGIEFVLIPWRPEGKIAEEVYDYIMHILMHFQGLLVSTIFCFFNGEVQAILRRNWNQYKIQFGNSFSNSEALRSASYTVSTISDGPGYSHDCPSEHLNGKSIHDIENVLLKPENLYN
Method: as §1

168 GPCRs [10] = biological target: 168 GPCRs (Homo sapiens, UniProt P49238)
Method: as §1

168 GPCRs [11] = biological target: 168 GPCRs (Homo sapiens, UniProt P21728)
Method: as §1

168 GPCRs [12] = biological target: 168 GPCRs (Homo sapiens, UniProt Q15077)
Method: as §1

168 GPCRs [13] = biological target: 168 GPCRs (Homo sapiens, UniProt P43119); settings: PTGIR
Method: as §1

168 GPCRs [14] = biological target: 168 GPCRs (Homo sapiens, UniProt Q9HBW0)
168 GPCRs (Homo sapiens, UniProt Q9HBW0), sequence (Q9HBW0 whole entry): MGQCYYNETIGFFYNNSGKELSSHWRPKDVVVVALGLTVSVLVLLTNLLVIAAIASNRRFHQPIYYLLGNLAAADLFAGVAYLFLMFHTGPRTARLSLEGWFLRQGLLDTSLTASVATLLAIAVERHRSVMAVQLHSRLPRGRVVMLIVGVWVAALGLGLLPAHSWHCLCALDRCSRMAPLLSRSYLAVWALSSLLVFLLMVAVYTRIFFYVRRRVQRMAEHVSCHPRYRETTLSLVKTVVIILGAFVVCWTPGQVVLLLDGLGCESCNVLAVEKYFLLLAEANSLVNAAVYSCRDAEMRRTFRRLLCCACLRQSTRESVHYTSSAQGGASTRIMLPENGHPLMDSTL
Method: as §1

168 GPCRs [15] = biological target: 168 GPCRs (Homo sapiens, UniProt P48546); settings: GIPR
168 GPCRs (Homo sapiens, UniProt P48546), sequence (P48546 22-466): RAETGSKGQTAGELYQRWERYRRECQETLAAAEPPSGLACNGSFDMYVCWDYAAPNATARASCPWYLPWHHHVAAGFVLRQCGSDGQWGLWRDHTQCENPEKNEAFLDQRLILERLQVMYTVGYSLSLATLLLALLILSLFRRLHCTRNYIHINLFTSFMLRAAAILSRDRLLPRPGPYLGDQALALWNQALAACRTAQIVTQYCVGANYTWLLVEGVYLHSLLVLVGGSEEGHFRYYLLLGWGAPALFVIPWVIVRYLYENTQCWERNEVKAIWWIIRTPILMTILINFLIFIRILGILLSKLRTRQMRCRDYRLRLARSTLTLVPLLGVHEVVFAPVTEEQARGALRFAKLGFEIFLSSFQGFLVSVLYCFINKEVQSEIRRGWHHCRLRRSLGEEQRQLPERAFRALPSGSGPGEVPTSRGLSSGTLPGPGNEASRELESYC
Method: as §1

168 GPCRs [16] = biological target: 168 GPCRs (Homo sapiens, UniProt Q9GZQ6)
168 GPCRs (Homo sapiens, UniProt Q9GZQ6), sequence (Q9GZQ6 whole entry): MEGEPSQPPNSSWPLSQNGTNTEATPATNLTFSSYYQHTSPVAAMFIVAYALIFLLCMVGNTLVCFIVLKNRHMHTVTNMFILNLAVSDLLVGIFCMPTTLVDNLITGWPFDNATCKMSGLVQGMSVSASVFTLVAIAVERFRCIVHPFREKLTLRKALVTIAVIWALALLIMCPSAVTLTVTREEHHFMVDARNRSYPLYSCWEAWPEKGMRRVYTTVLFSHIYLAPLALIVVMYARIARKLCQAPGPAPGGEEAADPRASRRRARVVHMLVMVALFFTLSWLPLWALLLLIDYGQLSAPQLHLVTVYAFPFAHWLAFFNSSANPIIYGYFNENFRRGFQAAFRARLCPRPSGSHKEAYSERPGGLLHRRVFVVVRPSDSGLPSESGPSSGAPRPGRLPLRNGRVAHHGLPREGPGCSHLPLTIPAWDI
Method: as §1

168 GPCRs [17] = biological target: 168 GPCRs (Homo sapiens, UniProt Q96LB2)
Method: as §1

168 GPCRs [18] = biological target: 168 GPCRs (Homo sapiens, UniProt P30988); settings: Agonist
168 GPCRs (Homo sapiens, UniProt P30988), sequence (P30988 25-474): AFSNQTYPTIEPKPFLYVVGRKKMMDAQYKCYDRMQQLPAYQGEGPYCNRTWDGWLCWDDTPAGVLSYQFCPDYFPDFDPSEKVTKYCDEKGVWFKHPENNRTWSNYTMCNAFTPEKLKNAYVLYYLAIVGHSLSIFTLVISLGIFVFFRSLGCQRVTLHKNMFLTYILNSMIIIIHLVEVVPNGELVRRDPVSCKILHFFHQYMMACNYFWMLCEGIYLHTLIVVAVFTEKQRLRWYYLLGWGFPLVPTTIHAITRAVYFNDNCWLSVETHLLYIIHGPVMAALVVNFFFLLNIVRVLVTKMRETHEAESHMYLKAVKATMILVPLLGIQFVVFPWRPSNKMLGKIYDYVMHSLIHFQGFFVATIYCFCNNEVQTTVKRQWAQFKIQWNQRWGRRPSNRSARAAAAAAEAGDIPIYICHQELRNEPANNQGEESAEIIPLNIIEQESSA
Method: as §1

168 GPCRs [19] = biological target: 168 GPCRs (Homo sapiens, UniProt P46092); settings: CCR10, Agonist
168 GPCRs (Homo sapiens, UniProt P46092), sequence (P46092 whole entry): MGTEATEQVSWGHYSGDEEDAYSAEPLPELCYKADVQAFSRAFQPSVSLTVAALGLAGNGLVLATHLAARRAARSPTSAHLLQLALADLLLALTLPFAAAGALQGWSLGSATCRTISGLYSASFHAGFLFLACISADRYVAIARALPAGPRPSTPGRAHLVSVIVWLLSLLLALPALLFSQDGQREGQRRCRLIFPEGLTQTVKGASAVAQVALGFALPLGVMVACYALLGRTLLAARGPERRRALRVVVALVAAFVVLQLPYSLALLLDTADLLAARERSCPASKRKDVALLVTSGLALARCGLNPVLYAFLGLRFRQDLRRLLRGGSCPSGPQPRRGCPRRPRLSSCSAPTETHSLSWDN
Method: as §1

168 GPCRs [20] = biological target: 168 GPCRs (Homo sapiens, UniProt P41586); settings: ADCYAP1R1, Agonist
Method: as §1

168 GPCRs [21] = biological target: 168 GPCRs (Homo sapiens, UniProt Q969V1)
168 GPCRs (Homo sapiens, UniProt Q969V1), sequence (Q969V1 whole entry): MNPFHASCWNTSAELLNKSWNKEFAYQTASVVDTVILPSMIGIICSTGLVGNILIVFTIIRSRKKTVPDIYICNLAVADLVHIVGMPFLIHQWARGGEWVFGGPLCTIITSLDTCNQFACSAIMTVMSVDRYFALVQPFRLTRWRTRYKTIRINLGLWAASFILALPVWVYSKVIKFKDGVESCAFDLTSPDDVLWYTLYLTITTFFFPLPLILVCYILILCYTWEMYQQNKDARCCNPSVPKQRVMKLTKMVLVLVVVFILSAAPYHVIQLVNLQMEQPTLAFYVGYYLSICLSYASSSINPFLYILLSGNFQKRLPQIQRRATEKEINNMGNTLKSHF
Method: as §1

[22] = CALCR-RAMP2, read-out: % Activity

Q: For `CNC(C)C(=O)c1ccc2c(c1)OCO2` (centres unmarked) [methylone, 3,4-methylenedioxy-N-methylcathinone], which activity at 10 µM (168 GPCRs [1]; DRD3, Agonist mode, 10 uM) is on record?
A: The activity at 10 µM was 2.3%.

Q: And the activity at 1 µM (168 GPCRs [1]; DRD3, Agonist, 1 uM)?
A: The activity at 1 µM was 2.2%.

Q: What about the activity at 10 µM (168 GPCRs [2]; SSTR2, Agonist mode, 10 uM) of the same molecule?
A: Its activity at 10 µM is 0.7%.

Q: And the activity at 1 µM (168 GPCRs [2]; SSTR2, Agonist, 1 uM)?
A: Its activity at 1 µM is 0%.

Q: What about the activity at 10 µM (168 GPCRs [3]; Agonist mode, 10 uM) of the same molecule?
A: The activity at 10 µM was 1.4%.

Q: And the activity at 1 µM (168 GPCRs [3]; Agonist, 1 uM)?
A: The activity at 1 µM was 0.3%.

Q: And the activity at 10 µM (168 GPCRs [4]; UTR2, Agonist mode, 10 uM)?
A: The activity at 10 µM was 0%.

Q: And the activity at 1 µM (168 GPCRs [4]; UTR2, Agonist, 1 uM)?
A: The activity at 1 µM was 0.6%.

Q: What about the activity at 10 µM (168 GPCRs [5]; EDG5, Agonist mode, 10 uM) of the same molecule?
A: The activity at 10 µM was 3.7%.

Q: What about the activity at 1 µM (168 GPCRs [5]; EDG5, Agonist, 1 uM) of the same molecule?
A: Its activity at 1 µM is -4.7%.

Q: What about the activity at 10 µM (168 GPCRs [6]; Agonist mode, 10 uM) of the same molecule?
A: The activity at 10 µM was 0.2%.

Q: And the activity at 1 µM (168 GPCRs [6]; Agonist, 1 uM)?
A: Its activity at 1 µM is 2.5%.

Q: What about the activity at 10 µM (168 GPCRs [7]; PPYR1, Agonist mode, 10 uM) of the same molecule?
A: Its activity at 10 µM is -1.2%.

Q: What about the activity at 1 µM (168 GPCRs [7]; PPYR1, Agonist, 1 uM) of the same molecule?
A: Its activity at 1 µM is -1.7%.

Q: What about the activity at 10 µM (168 GPCRs [8]; SSTR3, Agonist mode, 10 uM) of the same molecule?
A: The activity at 10 µM was 0.3%.

Q: What about the activity at 1 µM (168 GPCRs [8]; SSTR3, Agonist, 1 uM) of the same molecule?
A: The activity at 1 µM was 0.7%.

Q: And the activity at 1 µM (168 GPCRs [9]; CALCRL-RAMP1, read-out: % Activity)?
A: The activity at 1 µM was -2.6%.

Q: What about the activity at 10 µM (168 GPCRs [9]; CALCRL-RAMP1) of the same molecule?
A: The activity at 10 µM was -0.2%.

Q: What about the activity at 1 µM (168 GPCRs [9]; CALCRL-RAMP2) of the same molecule?
A: The activity at 1 µM was 0.1%.

Q: What about the activity at 10 µM (168 GPCRs [9]; CALCRL-RAMP2) of the same molecule?
A: The activity at 10 µM was 2.8%.

Q: And the activity at 1 µM (168 GPCRs [9]; CALCRL-RAMP3, read-out: % Activity)?
A: The activity at 1 µM was -2.2%.

Q: What about the activity at 10 µM (168 GPCRs [9]; CALCRL-RAMP3) of the same molecule?
A: The activity at 10 µM was 2.2%.

Q: And the activity at 10 µM (168 GPCRs [10]; CX3CR1, Agonist mode, 10 uM)?
A: Its activity at 10 µM is -0.4%.

Q: What about the activity at 1 µM (168 GPCRs [10]; CX3CR1, Agonist, 1 uM) of the same molecule?
A: The activity at 1 µM was 0%.

Q: And the activity at 10 µM (168 GPCRs [11]; DRD1, Agonist mode, 10 uM)?
A: The activity at 10 µM was -1.6%.

Q: What about the activity at 1 µM (168 GPCRs [11]; DRD1, Agonist, 1 uM) of the same molecule?
A: Its activity at 1 µM is -1.6%.

Q: What about the activity at 10 µM (168 GPCRs [12]; P2RY6, Agonist mode, 10 uM) of the same molecule?
A: The activity at 10 µM was 2.4%.

Q: What about the activity at 1 µM (168 GPCRs [12]; P2RY6, Agonist, 1 uM) of the same molecule?
A: The activity at 1 µM was 4.5%.

Q: And the activity at 10 µM (168 GPCRs [13]; Agonist mode, 10 uM)?
A: The activity at 10 µM was -2.3%.

Q: What about the activity at 1 µM (168 GPCRs [13]; Agonist, 1 uM) of the same molecule?
A: Its activity at 1 µM is -4.4%.

Q: And the activity at 10 µM (168 GPCRs [14]; EDG4, Agonist mode, 10 uM)?
A: The activity at 10 µM was -2.1%.

Q: And the activity at 1 µM (168 GPCRs [14]; EDG4, Agonist, 1 uM)?
A: The activity at 1 µM was -2.2%.

Q: And the activity at 10 µM (168 GPCRs [15]; Agonist mode, 10 uM)?
A: The activity at 10 µM was -5.8%.

Q: And the activity at 1 µM (168 GPCRs [15]; Agonist, 1 uM)?
A: The activity at 1 µM was -2.9%.

Q: What about the activity at 10 µM (168 GPCRs [16]; NPFFR1, Agonist mode, 10 uM) of the same molecule?
A: Its activity at 10 µM is -5.6%.

Q: What about the activity at 1 µM (168 GPCRs [16]; NPFFR1, Agonist, 1 uM) of the same molecule?
A: The activity at 1 µM was -4.6%.

Q: And the activity at 10 µM (168 GPCRs [17]; MRGPRX1, Agonist mode, 10 uM)?
A: The activity at 10 µM was -1.5%.

Q: And the activity at 1 µM (168 GPCRs [17]; MRGPRX1, Agonist, 1 uM)?
A: The activity at 1 µM was -1.7%.

Q: And the activity at 1 µM (168 GPCRs [18]; [22])?
A: The activity at 1 µM was 0.9%.

Q: What about the activity at 10 µM (168 GPCRs [18]; [22]) of the same molecule?
A: Its activity at 10 µM is 1.6%.

Q: What about the activity at 1 µM (168 GPCRs [18]; CALCR-RAMP3) of the same molecule?
A: The activity at 1 µM was 7.9%.

Q: What about the activity at 10 µM (168 GPCRs [18]; CALCR-RAMP3) of the same molecule?
A: Its activity at 10 µM is 7.1%.

Q: What about the activity at 1 µM (168 GPCRs [18]; CALCR, read-out: % Activity) of the same molecule?
A: The activity at 1 µM was -0.3%.

Q: And the activity at 10 µM (168 GPCRs [18]; CALCR, read-out: % Activity)?
A: The activity at 10 µM was 0.2%.

Q: And the activity at 1 µM (168 GPCRs [19]; 1 uM)?
A: The activity at 1 µM was -2%.

Q: And the activity at 10 µM (168 GPCRs [19]; 10 uM)?
A: The activity at 10 µM was -1.8%.

Q: And the activity at 1 µM (168 GPCRs [20]; 1 uM)?
A: The activity at 1 µM was -4%.

Q: What about the activity at 10 µM (168 GPCRs [20]; 10 uM) of the same molecule?
A: Its activity at 10 µM is -3%.

Q: What about the activity at 10 µM (168 GPCRs [21]; MCHR2, Agonist mode, 10 uM) of the same molecule?
A: The activity at 10 µM was -0.7%.

Q: What about the activity at 1 µM (168 GPCRs [21]; MCHR2, Agonist, 1 uM) of the same molecule?
A: The activity at 1 µM was -1.5%.
